Where two headings read alike, the source gives them in different places. Where a SMILES comes first, the peptide text is derived from it. Bridges are numbered along the chain shown (N, C = ends). Roman numbers before positions name the chains, in order. Where no end group is shown, it is not given here. [ ]: non-standard residue; d: D form. Ahx = NCCCCCC(=O)O
Legend:
CCL5 and CXCL10 mRNAs = type: cell-based, canine
IFNα, IFNβ, Mx1 mRNAs = type: cell-based, canine
NP RNA of IAV strain PR8 = type: cell-based, type A influenza virus (IAV)
IAV strain PR8 [1] = type: cell-based, type A influenza virus (IAV)
IAV strain PR8 [2] = system: IAV strain PR8; parameters: species or system BALB/c mice; conditions: mouse, in vivo
CaMKII-KD = target: T1, CaMKII-KD (Rattus norvegicus, UniProt P11275); assay: Kinase assay: phosphorylation of autocamtide-2 by CaMKII-KD; type: biochemical
T1 construct: made in house; host or cells: Sf21 insect cells, baculovirus (pBacPAK8)
T1 sequence (P11275 13-271 limits assumed): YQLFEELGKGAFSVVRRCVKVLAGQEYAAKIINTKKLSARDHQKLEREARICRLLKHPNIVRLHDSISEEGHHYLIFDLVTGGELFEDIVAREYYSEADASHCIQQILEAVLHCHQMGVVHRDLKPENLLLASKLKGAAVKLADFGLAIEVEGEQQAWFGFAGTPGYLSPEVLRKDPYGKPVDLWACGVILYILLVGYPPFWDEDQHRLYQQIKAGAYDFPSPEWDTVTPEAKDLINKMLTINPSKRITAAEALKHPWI

IAV strain PR8 [3] = type: cell-based, type A influenza virus (IAV); remark: listed apart in the source
IL-6, TNFα, IL-1β mRNAs = assay: RT-qPCR of proinflammatory cytokine mRNAs in LPS-treated RAW264.7 cells (Fig. S2c); type: cell-based, mouse; conditions: for IL-1β Relative expression AV / IL-6 Relative expression AV / TNFα Relative expression AV: RAW264.7 cells, LPS = 100, mean of n = 3
Experimental: (§1) a LPS promotes tumor necrosis factor α (TNFα) production in RAW264.7 cells. RAW264.7 cells were treated with the indicated concentration of LPS for 24 h. The amount of TNFα produced in the culture medium was measured by ELISA. Data are presented as a percentage of the control value without peptide (n = 3, mean ± SEM). **P < 0.01; ***P < 0.001 (compared with the control by ANOVA followed by one-sided Dunnett’s test). b The effects of M6 and mM3 on the activation of CaMKII in RAW264.7 cells. RAW264.7 cells were incubated with the indicated concentration of each peptide for 30 min, and then treated with 10 ng/ml LPS for 20 min. The cell lysates were analyzed by western blot using phosphorylated […] specific antibody to detect the activation of CaMKII (upper panel). Data are representative of three independent experiments. […] RAW264.7 cells were incubated with the indicated concentration of each peptide for 30 min, and then treated with10 ng/ml LPS for 3 h. The mRNA level of each proinflammatory cytokine was analyzed by quantitative RT-qPCR. Data are presented as the amount of each mRNA relative to that of LPS treatment only (n = 3, mean ± SEM). **P < 0.01, ***P < 0.001 (compared with the control by ANOVA followed by one-sided Tukey’s test).

[4] = system: TNFα production in RAW264.7 cells; assay: ELISA of TNFα production in LPS-treated RAW264.7 cells; type: cell-based, mouse; conditions: RAW264.7, peptide 30 min then LPS 10 ng/mL 24 h
[5] = system: CaMKII Thr286 autophosphorylation; assay: Western blot of LPS-induced CaMKII activation in RAW264.7 cells (Fig. S2b); type: cell-based, mouse
Experimental: as §1

`O=C1c2c(O)c(=O)ccn2N([C@@H]2c3ccccc3SCc3c2ccc(F)c3F)[C@@H]2COCCN12` [BXA, Baloxavir acid] was tested, and the “expression of CXCL10 and CCL5 mRNAs” value (CCL5 and CXCL10 mRNAs) was “also increased their expression”, the “expression of IFNα and β mRNAs early in infection” value (IFNα, IFNβ, Mx1 mRNAs) was “rather increased the expression of both mRNAs” and the “expression of IFNα and β mRNAs later in infection” value (IFNα, IFNβ, Mx1 mRNAs) was “greatly reduced”. For the same molecule, the “infection-induced expression of NP mRNA” value (NP RNA of IAV strain PR8) was “efficiently inhibited” and the “infection-induced cytopathicity” value (IAV strain PR8 [1]) was “efficiently inhibited”.

`Cc1nn(CC(F)(F)F)cc1Nc1ncc(Br)c(NCc2ccc(S(N)(=O)=O)cc2)n1` [GSK8612] was tested, and the “IAV-induced cytopathicity of MDCK cells, time of addition” value (IAV strain PR8 [1]) was “best when GSK8612 was added up to 3 h after infection”.

For `COc1ccc(S(=O)(=O)N(CCO)c2ccccc2CN(C)C/C=C/c2ccc(Cl)cc2)cc1` [KN-93], the “protection from mortality” value (IAV strain PR8 [2]) was “provided no protection”.

With `CSCC[C@H](N)C(=O)N[C@@H](C)C(=O)N[C@@H](CCCNC(=N)N)C(=O)N[C@@H](CCCNC(=N)N)C(=O)N[C@@H](CCCNC(=N)N)C(=O)N[C@@H](CC(C)C)C(=O)N[C@@H](CC(C)C)C(=O)N[C@@H](CC(C)C)C(=O)N[C@@H](CC(C)C)C(=O)N[C@@H](CC(C)C)C(=O)N[C@@H](C)C(=O)N[C@@H](CCCNC(=N)N)C(=O)N[C@@H](Cc1c[nH]cn1)C(=O)N[C@@H](Cc1c[nH]cn1)C(=O)N[C@@H](C)C(=O)N[C@@H](CCCCN)C(=O)N[C@@H](CCCCN)C(=O)N[C@@H](CCCCN)C(=O)NCCCCCC(=O)O` [M1] (H-MARRRLLLLLARHHAKKK[Ahx]-OH) the IC50 (CaMKII-KD; read-out: IC50) was 29.4 µM.

`CC[C@H](C)[C@H](NC(=O)[C@H](CCCNC(=N)N)NC(=O)[C@H](CCCNC(=N)N)NC(=O)[C@H](C)NC(=O)[C@@H](N)CCSC)C(=O)N[C@@H](CC(C)C)C(=O)N[C@@H](CC(C)C)C(=O)N[C@@H](CC(C)C)C(=O)N[C@@H](CC(C)C)C(=O)N[C@@H](CC(C)C)C(=O)N[C@@H](C)C(=O)N[C@@H](CCCNC(=N)N)C(=O)N[C@@H](Cc1c[nH]cn1)C(=O)N[C@@H](Cc1c[nH]cn1)C(=O)N[C@@H](C)C(=O)N[C@@H](CCCCN)C(=O)N[C@@H](CCCCN)C(=O)N[C@@H](CCCCN)C(=O)NCCCCCC(=O)O` [M2] (H-MARRILLLLLARHHAKKK[Ahx]-OH) showed an IC50 (CaMKII-KD; read-out: IC50) of 34 µM.

In the case of `CC[C@H](C)[C@H](NC(=O)[C@H](CCCNC(=N)N)NC(=O)[C@H](CCCNC(=N)N)NC(=O)[C@H](C)NC(=O)[C@@H](N)CCSC)C(=O)N[C@@H](CC(C)C)C(=O)N[C@@H](CC(C)C)C(=O)N[C@@H](CC(C)C)C(=O)N[C@@H](CC(C)C)C(=O)N[C@@H](CC(C)C)C(=O)N[C@@H](C)C(=O)N[C@@H](CCCNC(=N)N)C(=O)N[C@@H](CC(C)C)C(=O)N[C@@H](Cc1c[nH]cn1)C(=O)N[C@@H](C)C(=O)N[C@@H](CCCCN)C(=O)N[C@@H](CCCCN)C(=O)N[C@@H](CCCCN)C(=O)NCCCCCC(=O)O` [M3] (H-MARRILLLLLARLHAKKK[Ahx]-OH), the IC50 (CaMKII-KD; read-out: IC50) is reported as 19.4 µM.

`CC[C@H](C)[C@H](NC(=O)[C@H](CCCNC(=N)N)NC(=O)[C@H](C)NC(=O)[C@@H](N)CCSC)C(=O)N[C@H](C(=O)N[C@@H](CC(C)C)C(=O)N[C@@H](CC(C)C)C(=O)N[C@@H](CC(C)C)C(=O)N[C@@H](CC(C)C)C(=O)N[C@@H](CC(C)C)C(=O)N[C@@H](C)C(=O)N[C@@H](CCCNC(=N)N)C(=O)N[C@@H](CC(C)C)C(=O)N[C@@H](Cc1c[nH]cn1)C(=O)N[C@@H](C)C(=O)N[C@@H](CCCCN)C(=O)N[C@@H](CCCCN)C(=O)N[C@@H](CCCCN)C(=O)NCCCCCC(=O)O)[C@@H](C)CC` [M5] (H-MARIILLLLLARLHAKKK[Ahx]-OH) showed an IC50 (CaMKII-KD; read-out: IC50) of 11.1 µM.

Work on `CC[C@H](C)[C@H](NC(=O)[C@H](CCCNC(=N)N)NC(=O)[C@H](CCCNC(=N)N)NC(=O)[C@H](C)NC(=O)[C@@H](N)CCSC)C(=O)N[C@@H](CC(C)C)C(=O)N[C@@H](CC(C)C)C(=O)N[C@@H](CC(C)C)C(=O)N[C@@H](CC(C)C)C(=O)N[C@@H](CC(C)C)C(=O)N[C@@H](C)C(=O)N[C@@H](CC(C)C)C(=O)N[C@@H](CC(C)C)C(=O)N[C@@H](Cc1c[nH]cn1)C(=O)N[C@@H](C)C(=O)N[C@@H](CCCCN)C(=O)N[C@@H](CCCCN)C(=O)N[C@@H](CCCCN)C(=O)NCCCCCC(=O)O` [M6] (H-MARRILLLLLALLHAKKK[Ahx]-OH) yielded an IC50 (CaMKII-KD; read-out: IC50) of 12.3 µM.

For `CO/C1=C\C(C)=C\[C@@H](C)[C@@H](O)[C@@H](C)C/C(C)=C/C=C/[C@H](OC)[C@@H]([C@@H](C)[C@@H](O)[C@H](C)[C@@]2(O)C[C@@H](O)[C@H](C)[C@@H](C(C)C)O2)OC1=O` [baf], the “DiO positive vesicles (DiO/R18) Average” value (IAV strain PR8 [3]) was 0.08663.

With `CO/C1=C\C(C)=C\[C@@H](C)[C@@H](O)[C@@H](C)C/C(C)=C/C=C/[C@H](OC)[C@@H]([C@@H](C)[C@@H](O)[C@H](C)[C@@]2(O)C[C@@H](O)[C@H](C)[C@@H](C(C)C)O2)OC1=O` [bafilomycin A1, reference compound] the “fusion process / virus entry into cells” value (IAV strain PR8 [3]) was “efficiently inhibited virus entry into cells”.

“I: MARRILLLLLALLHAKKK[Ahx]KK-NH2 / II: MARRILLLLLALLHAKKK[Ahx]K / III: MARRILLLLLALLHAKKK[Ahx] / IV: MARRILLLLLALLHAKKK[Ahx] (amide I:20-IV:C, I:21-II:C, II:20-III:C) [T6]” was tested, and the IC50 (CaMKII-KD) was 32.2 µM.

“I: MARRILLLLLARHHAKKK[Ahx]KK-NH2 / II: MARRILLLLLARHHAKKK[Ahx]K / III: MARRILLLLLARHHAKKK[Ahx] / IV: MARRILLLLLARHHAKKK[Ahx] (amide I:20-IV:C, I:21-II:C, II:20-III:C) [T2]” was tested, and the IC50 (CaMKII-KD) was 14.1 µM.

Work on “I: MARRILLLLLARLHAKKK[Ahx]KK-NH2 / II: MARRILLLLLARLHAKKK[Ahx]K / III: MARRILLLLLARLHAKKK[Ahx] / IV: MARRILLLLLARLHAKKK[Ahx] (amide I:20-IV:C, I:21-II:C, II:20-III:C) [T3]” yielded an IC50 (CaMKII-KD) of 8.6 µM.

“I: MARRRLLLLLARHHAKKK[Ahx]KK-NH2 / II: MARRRLLLLLARHHAKKK[Ahx]K / III: MARRRLLLLLARHHAKKK[Ahx] / IV: MARRRLLLLLARHHAKKK[Ahx] (amide I:20-IV:C, I:21-II:C, II:20-III:C) [T1]” was tested, and the IC50 (CaMKII-KD) was 2.4 µM.

“myr-Met-Ala-[no. 3 or 6 motif]-Ala [mM3, N-terminal myristoylated-M3 (myr-Met-Ala-[no. 3 motif]-Ala)]” was tested, and the “transcription of IL-6, TNFα and IL-1β” value (IL-6, TNFα, IL-1β mRNAs; RAW264.7, peptide 30 min then 10 ng/ml LPS 3 h, RT-qPCR) was “efficiently inhibited”, the “IL-1β Relative expression AV” value (IL-6, TNFα, IL-1β mRNAs; peptide only (no LPS)) was 0.006044 and the “IL-6 Relative expression AV” value (IL-6, TNFα, IL-1β mRNAs; peptide only (no LPS)) was 0.006603. For the same molecule, the “TNFα Relative expression AV” value (IL-6, TNFα, IL-1β mRNAs; peptide only (no LPS)) was 2.34, the “IL-1β Relative expression AV” value (IL-6, TNFα, IL-1β mRNAs; peptide+LPS) was 16.8504 and the “IL-6 Relative expression AV” value (IL-6, TNFα, IL-1β mRNAs; peptide+LPS) was 27.8458. For the same molecule, the “TNFα Relative expression AV” value (IL-6, TNFα, IL-1β mRNAs; peptide+LPS) was 57.9321, the “inhibitory effect on IAV cytopathicity, single cycle of infection” value (IAV strain PR8 [1]) was “greatest inhibitory effect on IAV cytopathicity at concentrations up to 3 µM” and the “inhibition of TNFα production” value [4] was “inhibited TNFα production similarly to M6”. The “LPS-induced Thr286 autophosphorylation of CaMKII” value ([5]; RAW264.7, peptide 30 min then 10 ng/ml LPS 20 min, western blot) was “efficiently inhibited” and the “Phosphorylation of CaMKII (ratio) AV” value ([5]; peptide 10µM, RAW264.7 cells, (-) = 1, mean of n = 3) was 0.8346.

From article PMC11708044 (mBio, 2024)
